# What was measured:
# [1] = molecular target: T1, IRAK4 (Homo sapiens, UniProt Q9NWZ3); assay: IRAK4 MSD Biochemical Assay (10 μM ATP, 2 h); conditions: 0.1 nM IRAK4, 2 h, room temperature
# T1 construct: with 0.1 nM IRAK4, 1.6 μM of biotinylated peptide substrate and 10 μM ATP
# T1 sequence (Q9NWZ3 1-460): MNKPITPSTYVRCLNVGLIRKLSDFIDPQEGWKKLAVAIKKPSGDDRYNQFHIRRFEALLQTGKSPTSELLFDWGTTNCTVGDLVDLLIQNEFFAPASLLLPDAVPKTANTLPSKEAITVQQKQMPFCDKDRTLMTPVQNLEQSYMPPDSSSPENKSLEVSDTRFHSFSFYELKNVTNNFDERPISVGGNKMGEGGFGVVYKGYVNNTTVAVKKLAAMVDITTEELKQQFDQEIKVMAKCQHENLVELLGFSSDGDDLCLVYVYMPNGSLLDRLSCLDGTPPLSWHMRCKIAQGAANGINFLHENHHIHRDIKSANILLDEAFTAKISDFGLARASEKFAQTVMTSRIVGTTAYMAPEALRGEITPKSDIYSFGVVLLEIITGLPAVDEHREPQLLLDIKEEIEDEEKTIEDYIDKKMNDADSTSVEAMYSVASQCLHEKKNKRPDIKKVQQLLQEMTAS
# Method: The 2-hour 10 μM ATP Biochemical Assay employs a MesoScale Detection (MSD) format. The kinase reaction is based on the IRAK4 phosphorylation of a biotin labeled peptide (IRAK1 activation loop sequence 360-389).
# The kinase reaction in 30 μl is carried out in wells of a 384 well polypropylene assay plate, with 0.1 nM IRAK4, 1.6 μM of biotinylated peptide substrate and 10 μM ATP in 50 mM Hepes, pH 7.5, 60 mM NaCl, 5 mM MgCl2, 0.25 mM MnCl2, 2 mM DTT, 0.01% BSA, 0.01% BSA, and 1% DMSO (from compound DMSO stocks), for 2 hour at room temperature. The activity is quenched with 11 μl of 70 mM EDTA, pH 8.
# To detect the phosphorylated biotinylated peptide substrate, 30 μl of the quenched reaction mixture is added to equivalent wells of a 384 well streptavidin coated MesoScale plate (Meso Scale Discovery #L21SA-1). After a 1 hour incubation of the plate for 1 hour at room temperature with gentle mixing, the plate wells are washed 3 times with 50 mM Tris, pH 7.5, 150 mM NaCl, 0.02% Tween-20.
# A 25 μl volume of 1:500 anti-P-Threonine Rabbit polyclonal Antibody plus 1:500 Goat-anti-Rabbit Sulfo Tag Antibody (Meso Scale Discovery R32AB-1) in 50 mM Tris, pH 7.5, 150 mM NaCl, 0.02% Tween-20 plus 2% BSA is then added to each well. After a 1-hour incubation of the plate for 1 hour at room temperature with gentle mixing, the plate wells are washed, 3 times with 50 mM Tris, pH 7.5, 150 mM NaCl, 0.02% Tween-20. A 40 μl volume of 2×MSD Read Buffer (Meso Scale Discovery R92TC-1) is added to each well, and the plate is read immediately in an MSD Plate Reader (Meso Scale Discovery).
# [2] = molecular target: T2, MDR1 (P-gp) (Homo sapiens, UniProt P08183); assay: MDR1-MDCK assay (efflux ratio); type: in vitro ADME; conditions: human, MDCK-MDR1, 1 μM compound, 120 minutes incubation; read-out: MDR1-MDCK Efflux Ratio; (B-A/A-B)
# T2 construct: host or cells: MDCK cells
# T2 sequence (P08183 whole entry): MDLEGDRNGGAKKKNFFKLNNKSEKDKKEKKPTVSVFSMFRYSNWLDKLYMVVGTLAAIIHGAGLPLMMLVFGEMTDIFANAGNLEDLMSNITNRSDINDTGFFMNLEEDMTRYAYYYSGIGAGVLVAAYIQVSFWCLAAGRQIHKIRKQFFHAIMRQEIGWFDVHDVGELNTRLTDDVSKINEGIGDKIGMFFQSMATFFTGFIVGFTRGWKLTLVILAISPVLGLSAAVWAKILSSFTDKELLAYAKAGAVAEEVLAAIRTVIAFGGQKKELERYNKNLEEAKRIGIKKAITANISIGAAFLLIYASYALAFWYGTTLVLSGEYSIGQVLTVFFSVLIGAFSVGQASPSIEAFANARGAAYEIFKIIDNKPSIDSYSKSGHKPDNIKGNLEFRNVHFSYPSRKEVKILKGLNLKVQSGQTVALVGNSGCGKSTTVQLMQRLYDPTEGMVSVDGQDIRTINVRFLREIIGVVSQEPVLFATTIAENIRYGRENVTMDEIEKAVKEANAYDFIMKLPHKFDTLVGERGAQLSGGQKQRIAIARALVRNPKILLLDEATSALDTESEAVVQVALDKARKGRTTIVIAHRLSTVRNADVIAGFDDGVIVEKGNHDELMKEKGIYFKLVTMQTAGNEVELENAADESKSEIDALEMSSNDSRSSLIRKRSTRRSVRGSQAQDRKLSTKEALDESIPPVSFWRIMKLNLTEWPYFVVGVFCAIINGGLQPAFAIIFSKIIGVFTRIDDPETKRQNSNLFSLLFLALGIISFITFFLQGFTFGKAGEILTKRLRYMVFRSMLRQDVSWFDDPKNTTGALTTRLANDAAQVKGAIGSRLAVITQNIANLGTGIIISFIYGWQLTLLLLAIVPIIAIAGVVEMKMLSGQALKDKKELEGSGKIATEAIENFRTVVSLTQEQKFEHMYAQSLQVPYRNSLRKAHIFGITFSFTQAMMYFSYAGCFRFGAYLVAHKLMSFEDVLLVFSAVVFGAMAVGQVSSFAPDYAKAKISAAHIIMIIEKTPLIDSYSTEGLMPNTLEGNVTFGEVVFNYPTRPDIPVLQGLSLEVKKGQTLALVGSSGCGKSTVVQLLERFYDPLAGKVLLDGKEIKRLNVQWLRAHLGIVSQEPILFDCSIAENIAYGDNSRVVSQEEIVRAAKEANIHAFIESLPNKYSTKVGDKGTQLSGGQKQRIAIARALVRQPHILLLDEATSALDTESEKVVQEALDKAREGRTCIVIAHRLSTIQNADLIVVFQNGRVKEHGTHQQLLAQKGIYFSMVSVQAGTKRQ
# Procedure, shortened: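 Human MDR1-transfected MDCK monolayers, cultured 7 days on transwell inserts with TEER checked, were dosed with compound at 1 μM in HBSS-HEPES. Transport was measured in both A-B and B-A directions. Efflux ratio came from the directional permeabilities, with mass balance also calculated.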
# [3] = molecular target: T1, IRAK4; assay: IRAK4 MSD Biochemical Assay (1 mM ATP, 2 h); conditions: room temperature, read-out: IRAK4 MSD Biochemical Assay (1 mM ATP, 2 h) IC50
# Procedure, shortened: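 Run with 1 mM ATP and […] for 2 h, then quenched with EDTA, pH 8. The phosphorylated biotinylated peptide was captured on streptavidin plates and detected with anti-phospho-threonine antibody plus Sulfo-Tag secondary by MSD electrochemiluminescence.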
SMILES,IC50 [1] [nM],"efflux ratio at 120 min, 1 μM [2]",IC50 [3] [nM]
"COCCn1cc2cc(C(=O)Nc3cccc(C(F)F)n3)c(OC)cc2n1 [Example 10, N-(6-(difluoromethyl)pyridin-2-yl)-6-methoxy-2-(2-methoxyethyl)-2H-indazole-5-carboxamide]",26,0.9,–
"COc1cc2nn(CC3CCOC3)cc2cc1C(=O)Nc1cccc(C(F)F)n1 (centres unmarked) [Example 11, N-(6-(difluoromethyl)pyridin-2-yl)-6-methoxy-2-((tetrahydrofuran-3-yl)methyl)-2H-indazole-5-carboxamide]",2,1.1,6.8
"COc1cc2nn(CCC(C)(C)OC)cc2cc1C(=O)Nc1cccc(C(F)F)n1 [Example 12, N-(6-(difluoromethyl)pyridin-2-yl)-6-methoxy-2-(3-methoxy-3-methylbutyl)-2H-indazole-5-carboxamide]",2,1.4,5.5

# Source: US20230002361A1, “2H-INDAZOLE DERIVATIVES AND THEIR USE IN THE TREATMENT OF DISEASE” (BIOGEN MA INC., priority 2019, published 2023)
